# Reference: patent US20250066344A1 (BRISTOL-MYERS SQUIBB COMPANY, priority 2021, published 2025)
# Target: T1, human RXFP1 (Homo sapiens, UniProt Q9HBX9)
# T1 construct: expressed in transfected cells
# T1 sequence (Q9HBX9 1-757): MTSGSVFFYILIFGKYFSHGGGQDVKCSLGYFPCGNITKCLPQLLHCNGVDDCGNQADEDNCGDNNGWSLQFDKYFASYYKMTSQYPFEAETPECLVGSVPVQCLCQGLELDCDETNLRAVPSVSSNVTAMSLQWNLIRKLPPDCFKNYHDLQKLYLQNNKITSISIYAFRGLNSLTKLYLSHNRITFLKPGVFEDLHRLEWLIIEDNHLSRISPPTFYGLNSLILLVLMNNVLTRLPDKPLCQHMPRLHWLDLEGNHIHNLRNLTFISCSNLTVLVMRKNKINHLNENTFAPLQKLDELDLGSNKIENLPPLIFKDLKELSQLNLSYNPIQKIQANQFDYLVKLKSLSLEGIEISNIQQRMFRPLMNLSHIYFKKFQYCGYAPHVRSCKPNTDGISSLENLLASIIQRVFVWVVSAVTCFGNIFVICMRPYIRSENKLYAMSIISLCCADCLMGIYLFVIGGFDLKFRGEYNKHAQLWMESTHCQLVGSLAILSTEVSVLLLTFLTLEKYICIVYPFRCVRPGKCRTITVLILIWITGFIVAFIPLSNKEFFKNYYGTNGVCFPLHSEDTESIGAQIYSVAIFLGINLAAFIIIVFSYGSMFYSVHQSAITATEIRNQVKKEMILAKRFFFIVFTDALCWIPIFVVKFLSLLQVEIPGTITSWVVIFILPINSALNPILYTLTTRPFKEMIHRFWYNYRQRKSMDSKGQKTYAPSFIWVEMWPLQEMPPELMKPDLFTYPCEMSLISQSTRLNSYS
# Experiment: RXFP1 cyclic adenosine monophosphate (cAMP) assay, hRXFP1 HEK293
# Assay type: cell-based
# Conditions: HEK293 cells stably expressing human RXFP1; 30 min at room temperature; HTRF cAMP
# Method: RXFP1 Cyclic Adenosine Monophosphate (cAMP) Assays. Human embryonic kidney cells 293 (HEK293) cells and HEK293 cells stably expressing human RXFP1, were cultured in MEM medium supplemented with 10% qualified FBS, and 300 μg/ml hygromycin (Life Technologies). Cells were dissociated and suspended in assay buffer. The assay buffer was HBSS buffer (with calcium and magnesium) containing 20 mM HEPES, 0.05% BSA, and 0.5 mM IBMX. Cells (3000 cells per well, except 1500 cell per well for HEK293 cells stably expressing human RXFP1) were added to 384-well Proxiplates (Perkin-Elmer). Cells were immediately treated with test compounds in DMSO (2% final) at final concentrations in the range of 0.010 nM to 50 μM. Cells were incubated for 30 min at room temperature. The level of intracellular cAMP was determined using the HTRF HiRange cAMP assay reagent kit (Cisbio) according to manufacturer's instructions. Solutions of cryptate conjugated anti-cAMP and d2 fluorophore-labelled cAMP were made in a supplied lysis buffer separately. Upon completion of the reaction, the cells were lysed with equal volume of the d2-cAMP solution and anti-cAMP solution. After a 1 h room temperature incubation, time-resolved fluorescence intensity was measured using the Envision (Perkin-Elmer) at 400 nm excitation and dual emission at 590 nm and 665 nm. A calibration curve was constructed with an external cAMP standard at concentrations ranging from 2.7 μM to 0.1 μM by plotting the fluorescent intensity ratio from 665 nm emission to the intensity from the 590 nm emission against cAMP concentrations. The potency and activity of a compound to […] cAMP production was then determined by fitting to a 4-parametric logistic equation from a plot of cAMP level versus compound concentrations.
# The examples disclosed below were tested in the human RXFP1 (hRXFP) HEK293 cAMP assay described above and found to have agonist activity. Tables 1-3, lists EC50 values in the hRXFP1 HEK293 cAMP assay measured for the examples.
# Table A lists EC50 values in the hRXFP1 HEK293 cAMP assay measured for the examples.
row,Structure (SMILES),EC50 [nM]
1,"COc1ccc(-c2cc(C(NC(=O)C3CCOCC3)C(=O)O)ccc2F)cc1C(=O)Nc1cc2sc(C)nc2cc1C(=O)Nc1ccc(F)c(C(F)(F)F)c1 (single isomer, unassigned) [Example 30, 2-(6-fluoro-3′-((5-((4-fluoro-3-(trifluoromethyl)phenyl)carbamoyl)-2-methylbenzo[d]thiazol-6-yl)carbamoyl)-4′-methoxy-[1,1′-biphenyl]-3-yl)-2-(tetrahydro-2H-pyran-4-carboxamido)acetic acid]",15
2,"COc1ccc(C2=NOC(C(C)(C)O)C2)cc1C(=O)Nc1cc2nc(C)sc2cc1C(=O)Nc1ccc(F)c(C(F)(F)F)c1 (centres unmarked) [Example 11, N-(4-fluoro-3-(trifluorometh-yl)phenyl)-5-(5-(5-(2-hydroxypro-pan-2-yl)-4,5-dihydroisox-azol-3-yl)-2-methoxybenz-amido)-2-methylbenzo [d]thiazole-6-carboxamide]",160
3,"COc1ccc(C2=NOC3(C2)CN(C(=O)CO)C3)cc1C(=O)Nc1cc2c(cc1C(=O)Nc1ccc(F)c(C(F)(F)F)c1)OC(F)(F)O2 [Example 75, 2,2-difluoro-N-(4-fluoro-3-(trifluoromethyl)phenyl)-6-(5-(2-(2-hydroxyacetyl)-5-oxa-2,6-diazaspiro[3.4]oct-6-en-7-yl)-2-methoxybenzamido) benzo[d][1,3]dioxole-5-carboxamide]",231
4,"COc1ccc(-c2cc(C(=O)NS(C)(=O)=O)ccc2F)cc1C(=O)Nc1cc2c(cc1C(=O)Nc1ccc(F)c(C(F)(F)F)c1)OC(F)(F)O2 [Example 47, N3-(2,2-difluoro-6-((4-fluoro-3-(trifluoromethyl)phenyl)carbamoyl)benzo[d][1,3]dioxol-5-yl)-6′-fluoro-4-methoxy-N3′-(methylsulfonyl)-[1,1′-biphenyl]-3,3′-dicarboxamide]",85
5,"COc1ccc(C(=O)N2CCC3(CC2)COC3)cc1C(=O)Nc1cc2c(cc1C(=O)Nc1ccc(F)c(C(F)(F)F)c1)OC(F)(F)O2 [Example 42, 2,2-difluoro-N-(4-fluoro-3-(trifluoromethyl)phenyl)-6-(2-methoxy-5-(2-oxa-7-azaspiro[3.5]nonane-7-carbonyl)benzamido) benzo[d][1,3]dioxole-5-carboxamide]",1200
6,"COc1ccc(-c2ccc3c(c2)CCNC3)cc1C(=O)Nc1cc2c(cc1C(=O)Nc1ccc(F)c(C(F)(F)F)c1)OC(F)(F)O2 [Example 93, 2,2-difluoro-N-(4-fluoro-3-(trifluoromethyl)phenyl)-6-(2-methoxy-5-(1,2,3,4-tetrahydroisoquinolin-6-yl)benzamido)benzo[d] [1,3]dioxole-5-carboxamide]",1090
7,"CC(C)(C)NS(=O)(=O)c1ccc(F)c(-c2cc3c(c(C(=O)Nc4cc5c(cc4C(=O)Nc4ccc(F)c(C(F)(F)F)c4)OC(F)(F)O5)c2)OC(C)(C)C3)c1 [Example 101, 6-(5-(5-(N-(tert-butyl)sulfamoyl)-2-fluorophenyl)-2,2-dimethyl-2,3-dihydrobenzofuran-7-carboxamido)-2,2-difluoro-N-(4-fluoro-3-(trifluoromethyl)phenyl) benzo[d][1,3]dioxole-5-carboxamide]",9.8
8,"COc1ccc(C2=NOC3COCC23)cc1C(=O)Nc1cc2nc(C)sc2cc1C(=O)NC1CCCC1 (centres unmarked) [Example 29, N-cyclopentyl-5-(2-methoxy-5-(3a,4,6,6a-tetrahydrofuro [3,4-d]isox-azol-3-yl)-benzamido)-2-methylbenzo [d]thiazole-6-carboxamide]",2700
9,"COc1ccc(-c2cncc(S(=O)(=O)NC(C)(C)C)c2)cc1C(=O)Nc1cc2c(cc1C(=O)Nc1ccc(F)c(C(F)(F)F)c1)OC(F)(F)O2 [Example 70, 6-(5-(5-(N-(tert-butyl)sulfamoyl)pyridin-3-yl)-2-methoxybenzamido)-2,2-difluoro-N-(4-fluoro-3-(trifluoromethyl)phenyl) benzo[d][1,3]dioxole-5-carboxamide]",132
10,"COc1ccc(-c2cnc3n2CCN(CC(N)=O)C3)cc1C(=O)Nc1cc2c(cc1C(=O)Nc1ccc(F)c(C(F)(F)F)c1)OC(F)(F)O2 [Example 82, 6-(5-(7-(2-amino-2-oxoethyl)-5,6,7,8-tetrahydroimidazo[1,2-a]pyrazin-3-yl)-2-methoxybenzamido)-2,2-difluoro-N-(4-fluoro-3-(trifluoromethyl)phenyl) benzo[d][1,3]dioxole-5-carboxamide]",144
11,"COc1ccc(C2=NOC(C)(CO)C2)cc1C(=O)Nc1cc2c(cc1C(=O)Nc1ccc(F)c(C(F)(F)F)c1)OC(F)(F)O2 (single isomer, unassigned) [Example 71, 2,2-difluoro-N-(4-fluoro-3-(trifluoromethyl)phenyl)-6-(5-(5-(hydroxymethyl)-5-methyl-4,5-dihydroisoxazol-3-yl)-2-methoxybenzamido) benzo[d][1,3]dioxole-5-carboxamide]",43
12,"COc1ccc(-c2cc([C@H](OC(=O)NC3CCC3)C(F)(F)F)ccc2F)cc1C(=O)Nc1cc2c(C)noc2cc1C(=O)Nc1ccc(F)c(C(F)(F)F)c1 [Example 32, (S)-2,2,2-trifluoro-1-(6-fluoro-3′-((6-((4-fluoro-3-(trifluoromethyl)phenyl)carbamoyl)-3-methylbenzo[d]isoxazol-5-yl)carbamoy])-4-methoxy-[1,1′-biphenyl]-3-yl)ethyl cyclobutylcarbamate]",18
13,"COc1ccc(C(=O)N2CC(C(C)(C)O)C2)cc1C(=O)Nc1cc2c(cc1C(=O)Nc1ccc(F)c(C(F)(F)F)c1)OC(F)(F)O2 [Example 38, 2,2-difluoro-N-(4-fluoro-3-(trifluoromethyl)phenyl)-6-(5-(3-(2-hydroxypropan-2-yl)azetidine-1-carbonyl)-2-methoxybenzamido) benzo[d][1,3]dioxole-5-carboxamide]",84
14,"COc1ccc(-c2cc(C(=O)O)ccc2F)cc1C(=O)Nc1cc2c(C)noc2cc1C(=O)Nc1ccc(F)c(C(F)(F)F)c1 [Example 31, 6-fluoro-3′-((6-((4-fluoro-3-(trifluoromethyl)phenyl)carbamoyl)-3-methylbenzo[d]isoxazol-5-yl)carbamoyl)-4′-methoxy-[1,1′-biphenyl]-3-carboxylic acid]",116
15,"COc1ccc(-c2noc(C(C)(C)O)n2)cc1C(=O)Nc1cc2c(cc1C(=O)Nc1ccc(F)c(C(F)(F)F)c1)OC(F)(F)O2 [Example 84, 2,2-difluoro-N-(4-fluoro-3-(trifluoromethyl)phenyl)-6-(5-(5-(2-hydroxypropan-2-yl)-1,2,4-oxadiazol-3-yl)-2-methoxybenzamido) benzo[d][1,3]dioxole-5-carboxamide]",485
16,"COc1ccc(-c2cc([C@H](C)O)on2)cc1C(=O)Nc1cc2c(cc1C(=O)Nc1ccc(F)c(C(F)(F)F)c1)OC(F)(F)O2 [Example 73, (S)-2,2-difluoro-N-(4-fluoro-3-(trifluoromethyl)phenyl)-6-(5-(5-(1-hydroxyethyl)isoxazol-3-yl)-2-methoxybenzamido) benzo[d][1,3]dioxole-5-carboxamide]",96
17,"COc1ccc(CN2CC3(C2)CS(=O)(=O)C3)cc1C(=O)Nc1cc2c(cc1C(=O)Nc1ccc(F)c(C(F)(F)F)c1)OC(F)(F)O2 [Example 88, 6-(5-((2,2-dioxido-2-thia-6-azaspiro[3.3]heptan-6-yl)methyl)-2-methoxybenzamido)-2,2-difluoro-N-(4-fluoro-3-(trifluoromethyl)phenyl) benzo[d][1,3]dioxole-5-carboxamide]",274
